Counter-ions that a name gives are not always drawn.
System: MPTP-lesioned, L-DOPA-naïve cynomolgus monkeys
Experiment: In vivo evaluation of implants vs pulsatile subcutaneous injections ("ON" status, dyskinesia)

## CN1CCc2cccc3c2[C@H]1Cc1ccc(O)c(O)c1-3 [apomorphine, Apomorphine HCl]
Daily subcutaneous injection
  minimally-effective dose to achieve "ON" status: 0.2 mg/kg
Daily subcutaneous injections, 0.2 mg/kg, range 7-10
  time to development of dyskinesias: 8.3 days
Duration of treatment up to six months for implants, daily injections 0.2 mg/kg
  development of dyskinesia: all animals in the pulsatile injection group developed dyskinesias
Pulsatile daily subcutaneous injections, 0.2 mg/kg
  duration of "ON" state after each administration: approximately 90 minutes

— US9278163B2, “Implantable polymeric device for sustained release of dopamine agonist” (Titan Pharmaceuticals, Inc., priority 2003, dated 2016)
